Measured values from US5521173A, “Tricyclic benzazepine vasopressin antagonists” (American Home Products Corporation, priority 1995, dated 1996).

Columns and labels:
oxytocin receptors = target: T1, oxytocin receptors (Rattus norvegicus, UniProt P70536); experiment: Oxytocin Receptor Binding; set-up: species or system rat (female Sprague-Dawley); conditions: for IC50: 1.0 nM [3H]OT
T1 construct: The uteri are dissected out, cleaned of fat and connective tissues; from tissue; host or cells: uteri of DES-treated female Sprague-Dawley rats
T1 sequence (P70536 1-388): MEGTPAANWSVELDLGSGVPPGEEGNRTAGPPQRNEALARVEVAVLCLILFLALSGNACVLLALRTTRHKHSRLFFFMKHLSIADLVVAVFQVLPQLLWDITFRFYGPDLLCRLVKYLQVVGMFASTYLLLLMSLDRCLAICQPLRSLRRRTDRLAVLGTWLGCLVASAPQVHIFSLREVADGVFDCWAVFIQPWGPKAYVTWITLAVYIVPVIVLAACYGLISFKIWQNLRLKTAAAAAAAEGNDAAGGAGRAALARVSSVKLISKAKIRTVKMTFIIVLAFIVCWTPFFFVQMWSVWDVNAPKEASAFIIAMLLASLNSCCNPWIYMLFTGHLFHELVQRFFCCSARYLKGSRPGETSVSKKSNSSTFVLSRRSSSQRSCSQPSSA
Method: Oxytocin Receptor Binding
Female Sprague-Dawley rats weighing approximately 200-250 g are injected intramuscularly (i.m.) with 0.3 mg/kg of body weight of diethylstilbestrol (DES). The rats are sacrificed 18 hours later under pentobarbital anesthesia. The uteri are dissected out, cleaned of fat and connective tissues and rinsed in 50 ml of normal saline. The tissue pooled from six rats is homogenized in 50 ml of […] Tris.HCl, containing 0.5 mM dithiothreitol and 1.0 mM EDTA, adjusted to pH 7.4, using a polytron at setting 6 with three passes of 10 sec each. The homogenate is passed through two (2) layers of cheesecloth and the filtrate centrifuged at 1000× g for 10 min. The clear supernatant is removed and recentrifuged at 165,000× g for 30 min. The resulting pellet containing the oxytocin receptors is resuspended in 50.0 mM Tris.HCl containing 5.0 mM MgCl2 at pH 7.4, to give a protein concentration of 2.5 mg/ml of tissue suspension. This preparation is used in subsequent binding assays with [^3 H]Oxytocin.
Binding of 3,5-[^3 H]Oxytocin ([^3 H]OT) to its receptors is done in microtiter plates using [^3 H]OT, at various concentrations, in an assay buffer of 50.0 mM Tris.HCl, pH 7.4 and containing 5.0 mM MgCl2, and a mixture of protease inhibitors: BSA, 0.1 mg; aprotinin, 1.0 mg; 1,10-phenanthroline, 2.0 mg; […], 10.0 mg; and PMSF, 0.3 mg per 100 ml of buffer solution. Non-specific binding is determined in the presence of 1.0 uM unlabeled OT. The binding reaction is terminated after 60 min., at 22° C., by rapid filtration through glass fiber filters using a Brandel, cell harvester (Biomedical Research and Development Laboratories,Inc., Gaithersburg, Md.). Competition experiments are conducted at equilibrium using 1.0 nM [^3 H]OT and varying the concentration of the displacing agents. The concentrations of agent displacing 50% of [^3 H]OT at its sites (IC50) are calculated by a computer assisted LUNDON-2 program (LUNDON SOFTWARE INC., Ohio, USA).

[1] = target: T2, Human V2 Vasopressin Receptor (Homo sapiens, UniProt P30518); experiment: Binding to Membranes of Mouse Fibroblast Cell Line (LV-2) Transfected with the cDNA Expressing the Human V2 Vasopressin Receptor; conditions: ** LV-2 cell membranes
T2 construct: expressed in transfected cells; host or cells: mouse fibroblast cell line LV-2
Method: (a) Membrane Preparation Flasks of 175 ml capacity, containing attached cells grown to confluence, are cleared of culture medium by aspiration. […] The content of all flasks is poured into a centrifuge tube and the cells pelleted at 300× g for 15 min. The Hank's based solution is aspirated off and the cells homogenized with a polytron at setting #6 for 10 sec in 10.0 mM Tris.HCl buffer, pH 7.4 containing 0.25M sucrose and 1.0 mM EDTA. The homogenate is centrifuged at 1500× g for 10 min to remove ghost membranes. The supernatant fluid is centrifuged at 100,000× g for 60 min to pellet the receptor protein. […] (b) Receptor Binding […] Non specific binding is assessed in the presence of 1.0 μM of unlabeled ligand, added in 20 μl volume. […] The radioactivity trapped on the filter disk by the ligand-receptor complex is assessed by liquid scintillation counting in a Packard LS Counter, with an efficiency of 65% for tritium. The data are analyzed for IC50 values by the LUNDON-2 program for competition (LUNDON SOFTWARE, Ohio).

T2 sequence (P30518 whole entry): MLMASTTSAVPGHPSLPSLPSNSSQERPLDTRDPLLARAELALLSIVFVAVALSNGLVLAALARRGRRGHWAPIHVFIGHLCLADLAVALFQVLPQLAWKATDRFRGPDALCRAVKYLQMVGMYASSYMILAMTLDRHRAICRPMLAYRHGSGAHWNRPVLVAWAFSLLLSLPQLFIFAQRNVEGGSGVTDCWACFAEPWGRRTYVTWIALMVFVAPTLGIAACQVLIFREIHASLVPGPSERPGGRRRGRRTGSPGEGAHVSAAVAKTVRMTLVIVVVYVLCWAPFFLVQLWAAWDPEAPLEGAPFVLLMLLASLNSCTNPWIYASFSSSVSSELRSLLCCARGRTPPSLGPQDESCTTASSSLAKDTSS

SMILES | inhibition at 10 µM (oxytocin receptors) | IC50 (oxytocin receptors) | IC50 [1]
O=C(c1ccc(-c2ccccn2)cc1)N1Cc2cccn2Cc2ccccc21 [Example 9, 10,11-Dihydro-10-[4-(2-pyridinyl)benzoyl]-5H-pyrrolo[2,1-c][1,4]benzodiazepine] | 100% | 130 nM | 
O=C(c1ccc(-c2cc(F)cc(F)c2)cc1)N1Cc2cccn2Cc2ccccc21 [Example 3, 10,11-Dihydro-10-[4-(3,5-difluorophenyl)benzoyl]-5H-pyrrolo[2,1-c][1,4]benzodiazepine] | 89% | 2600 nM | 2500 nM
O=C(c1ccc(-c2ccccc2)cc1)N1Cc2cccn2Cc2ccccc21 [Example 19, 10-([1,1'-Biphenyl]-4-ylcarbonyl)-10,11-dihydro-5H-pyrrolo[2,1-c][1,4]benzodiazepine] | 81% | 43 nM | 390 nM
O=C(c1ccc(-c2ccccc2)cc1)N1Cc2ccnn2Cc2ccccc21 [Example 7, 5-([1,1'-Biphenyl]-4-ylcarbonyl)-5,10-dihydro-4H-pyrazolo[5,1-c][1,4]benzodiazepine] | 100% | 230 nM | 1700 nM
O=C(c1ccc(-c2ccccc2C(F)(F)F)cc1)N1Cc2cccn2Cc2ccccc21 [Example 8] | 95% | 1270 nM | 
